In patent publication US20030143729A1 (Synaptic Pharmaceutical Corporation, priority 1992, published 2003):
Like-named read-outs stand apart in the source and are kept apart here.

Columns and labels:
[1] = target: T1, GAT-2 (Rattus norvegicus, UniProt P31646); experiment: [3H]GABA uptake by COS cells transfected with GAT-2 (rB14b); type: cell-based
T1 construct: randomly primed GAT-2 full-length or GAT-3 truncated or full-length cDNA clones; expressed in transfected cells; host or cells: COS cells, transient, plasmid pEVJB-rB14b
T1 sequence (P31646 1-602): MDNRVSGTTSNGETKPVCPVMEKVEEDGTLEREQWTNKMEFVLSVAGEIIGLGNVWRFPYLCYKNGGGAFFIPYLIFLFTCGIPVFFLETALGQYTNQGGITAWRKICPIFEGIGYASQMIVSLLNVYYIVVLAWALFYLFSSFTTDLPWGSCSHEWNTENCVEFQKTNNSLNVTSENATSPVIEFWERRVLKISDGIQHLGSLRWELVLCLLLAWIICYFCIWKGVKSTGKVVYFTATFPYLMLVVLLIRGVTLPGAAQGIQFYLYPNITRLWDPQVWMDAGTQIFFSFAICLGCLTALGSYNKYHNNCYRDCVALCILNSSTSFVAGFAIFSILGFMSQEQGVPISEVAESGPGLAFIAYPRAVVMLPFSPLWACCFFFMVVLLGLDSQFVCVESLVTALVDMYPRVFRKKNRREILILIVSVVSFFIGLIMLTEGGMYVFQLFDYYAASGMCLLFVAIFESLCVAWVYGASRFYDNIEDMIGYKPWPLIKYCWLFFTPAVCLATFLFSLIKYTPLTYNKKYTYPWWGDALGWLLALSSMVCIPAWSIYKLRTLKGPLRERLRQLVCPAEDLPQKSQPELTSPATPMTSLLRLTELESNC

[2] = test system: neuronal cultures; experiment: [3H]GABA uptake in primary neuronal cell cultures; type: cell-based, rat
Procedure: Brains were removed aseptically from E17 embryonic Sprague-Dawley rats brains, carefully dissected free of meninges, and kept on ice. A single-cell suspension was made by mincing the brains, followed by trituration through a serological pipette. […] On day three cytosine β-D-arabinofuransoside (3 μM) was added to control the proliferation of non-neuronal cells. The cultures were used for transport assay approximately one week after plating.

[3] = test system: Type 1 astrocytes; experiment: [3H]GABA uptake in Type 1 astrocyte cultures; type: cell-based, rat; details: read-out: IC50 for inhibition of [3H]GABA uptake, Type 1 astrocytes
Procedure: (§1) Preparation of primary rat astrocyte cell cultures: Primary glial cultures were established from newborn Sprague-Dawley rat brains. Brains minus cerebella were removed aseptically and carefully dissected free of meninges. […] The cells were dissociated by trituration through a serological pipette. Separate procedures were then used for the preparation of Type-1 and O-2A/Type-2 astrocyte cultures, as will now be described.
(§2) For the preparation of Type-1 astrocyte cultures, cells were plated onto uncoated 75 cm^2 flasks at low density (1 brain per 10 flasks, or approximately 8×10^4 cells/cm^2). The medium was changed the following day and twice a week thereafter. […] Cultures highly enriched in O-2A/Type-2 cells were prepared from mixed astrocyte cultures which consisted of a monolayer of Type 1 cells upon which rested large numbers of O-2A/Type 2 cells. […] The same brain cell suspensions as described above were plated at high density (1 brain per 75 cm^2 flask, or approximately 8×10^5 cells/cm^2) into flasks coated with poly-D-lysine (10 μg/ml). After 24 hours the medium was replaced and the cultures were subsequently fed twice a week. […] Complete medium was added to the flasks and the cell suspension was removed gently, care being taken to not disrupt the underlying Type 1 astrocyte monolayer. The cells were pelleted at low speed, resuspended in complete medium, and added to 24-well plates coated with poly-D-lysine (10 μg/ml). […] No attempt was made to distinguish or separate O-2A precursors from the more differentiated Type 2 astrocytes.

[4] = test system: O-2A/Type 2 astrocytes; experiment: [3H]GABA uptake in O-2A/Type 2 astrocyte cultures; type: cell-based, rat
Procedure: as §1, §2

[5] = test system: rat brain aggregates; experiment: [3H]GABA uptake by brain aggregates; type: cell-based
Procedure: Briefly, adult rat brains were removed from the skull and the cerebral cortex was dissected and placed in ice-cold HBS. […] The preparation was washed once by centrifugation, then resuspended in HBS.
The filters were washed with ice-cold HBS, punched into vials, and radioactivity determined by scintillation counting. Protein was determined in an aliquot of the aggregate preparation using the BIO-RAD protein assay kit.

[6] = target: T2, hBGT-1 (Homo sapiens, UniProt P48065); experiment: [3H]GABA uptake, full competition curves at cloned hBGT-1 (transient transfection, COS cells); type: cell-based; set-up: expressed in transfected cells; host or cells: COS cells, transient (DEAE-dextran)
T2 sequence (P48065 1-614): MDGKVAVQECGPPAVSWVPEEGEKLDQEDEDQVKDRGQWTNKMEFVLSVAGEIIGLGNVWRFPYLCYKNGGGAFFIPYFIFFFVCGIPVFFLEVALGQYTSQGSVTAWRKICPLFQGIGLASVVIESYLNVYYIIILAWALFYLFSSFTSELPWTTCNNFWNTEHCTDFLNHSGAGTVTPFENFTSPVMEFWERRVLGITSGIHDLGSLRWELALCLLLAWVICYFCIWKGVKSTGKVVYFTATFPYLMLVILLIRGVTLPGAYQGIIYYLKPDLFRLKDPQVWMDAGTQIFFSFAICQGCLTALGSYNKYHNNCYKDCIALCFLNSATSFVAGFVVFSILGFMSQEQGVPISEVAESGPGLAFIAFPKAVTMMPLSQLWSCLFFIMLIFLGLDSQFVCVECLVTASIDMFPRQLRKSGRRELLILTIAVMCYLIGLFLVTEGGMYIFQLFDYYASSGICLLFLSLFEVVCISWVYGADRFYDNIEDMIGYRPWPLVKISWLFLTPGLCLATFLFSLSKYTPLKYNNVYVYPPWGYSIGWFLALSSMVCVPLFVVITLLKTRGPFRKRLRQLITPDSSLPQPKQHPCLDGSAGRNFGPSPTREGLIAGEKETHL

[7] = COS, read-out: % Inhibition of [3H]GABA uptake, GAT-2
[8] = Rattus norvegicus, Neuron, read-out: IC50 for inhibition of [3H]GABA uptake, Neurons with NNC-711, in the presence of 10 μM NNC-711
[9] = Rattus norvegicus, Neuron, read-out: IC50 for inhibition of [3H]GABA uptake, Neurons, absence of NNC-711
[10] = read-out: IC50 for inhibition of [3H]GABA uptake, Neurons, absence of NNC-711
[11] = Rattus norvegicus, Astrocyte, 3 h
[12] = Rattus norvegicus, Astrocyte, 3 h, read-out: IC50 for inhibition of [3H]GABA uptake, O-2A/Type 2 astrocytes with NNC-711, in the presence of 10 μM NNC-711
[13] = Rattus norvegicus, Astrocyte, 3 h, read-out: IC50 for inhibition of [3H]GABA uptake, O-2A/Type 2 astrocytes, absence of NNC-711
[14] = Rattus norvegicus, read-out: IC50 for inhibition of [3H]GABA uptake, rat brain aggregates, control
[15] = read-out: IC50 for inhibition of [3H]GABA uptake, Neurons with NNC-711, in the presence of 10 μM NNC-711
[16] = read-out: IC50 for inhibition of [3H]GABA uptake, O-2A/Type 2 astrocytes with NNC-711, in the presence of 10 μM NNC-711
[17] = read-out: IC50 for inhibition of [3H]GABA uptake, O-2A/Type 2 astrocytes, absence of NNC-711
[18] = read-out: IC50 for inhibition of [3H]GABA uptake, rat brain aggregates, control, absence of NNC-711
[19] = read-out: IC50 for inhibition of [3H]GABA uptake, rat brain aggregates, with NNC-711, in the presence of 10 μM NNC-711
[20] = read-out: IC50 for inhibition of [3H]GABA uptake, hBGT-1 (Table 8), full competition curves, 50 nM [3H]GABA

| Compound | inhibition at 100 µM [1, 7] [%] | IC50 [2, 8] [µM] | IC50 [2, 9] [µM] | IC50 [2, 10] [µM] | IC50 [3, 11] [µM] | IC50 [4, 12] [µM] | IC50 [4, 13] [µM] | IC50 [5, 14] [µM] | IC50 [6] [µM] | IC50 [2, 15] [µM] | IC50 [3] [µM] | IC50 [4, 16] [µM] | IC50 [4, 17] [µM] | IC50 [5, 19] [µM] | IC50 [6, 20] [µM] | further results |
| --- | --- | --- | --- | --- | --- | --- | --- | --- | --- | --- | --- | --- | --- | --- | --- | --- |
| N[C@@H]1CCC[C@H](C(=O)O)C1 (relative stereo) [ACHC, cis-3-aminocyclohexanecarboxylic acid] | 3 ± 3 | 1950 | ~75 | 77 ± 8 | 400 ± 200 | 2360 | ~35 | 31 | 1070 |  |  |  |  |  |  | IC50 ([2]; Rattus norvegicus, read-out: IC50, NNC-711-resistant GABA transport, neuronal cultures, in the presence of 10 μM NNC-711): ~2000 µM; IC50 ([4]; Rattus norvegicus, Astrocyte, read-out: IC50 for GABA transport, O-2A/Type 2 astrocytes, in the presence of 10 μM NNC-711): ~2000 µM |
| NCCCC(=O)O [GABA, gamma-aminobutyric acid] |  |  |  |  |  |  |  |  |  |  |  |  |  |  |  | VMAX of GABA transport, COS/rB14b (GAT-2) ([1]; various concentrations of [3H]GABA, 30 seconds): 2.5±1.2 nmoles/mg protein |
| N=C(N)NCCS(=O)(=O)O [GES, guanidinoethanesulfonic acid] |  |  |  | 2110 |  |  |  |  |  | 508 ± 60 | 310 ± 60 | 603 ± 300 | 1560 | 410 ± 100 | 4800 | IC50 [5, 18]: 1340 µM |
| NCC[C@H](N)C(=O)O [L-DABA, L-(2,4)diaminobutyric acid] | 43 ± 8 | 861 ± 225 | 165 ± 20 |  | 3460 | 91 ± 30 | 74 | 22 ± 3 | 528 ± 62 |  |  |  |  |  |  |  |
| O=C(O)C1=CCCN(CCON=C(c2ccccc2)c2ccccc2)C1 [NNC-711] |  |  |  | 0.28 ± 0.1 |  |  |  |  |  |  | 2 ± 0.3 |  | 0.07 | 323 ± 70 | 3570 | specific [3H]GABA uptake that persisted, neuronal cultures ([2]; NNC-711 at 10 μM): 31±1%; IC50 ([2]; read-out: IC50 for [3H]GABA uptake, neuronal cultures): ~0.3 µM; specific [3H]GABA uptake that persisted, O-2A/Type 2 astrocytes ([4]; NNC-711 at 10 μM): 26±4%; [3H]GABA uptake that persists, rat brain aggregates ([5]; NNC-711 at 10 μM): 15±2%; IC50 ([5]; read-out: IC50 for GABA uptake, rat brain aggregates): 0.09 µM |
| O=C(O)C1=CCCNC1 [guvacine] |  |  |  |  | 23 ± 10 |  |  | 10 ± 2 | 1420 |  |  |  |  |  |  | inhibition at 10 µM [1, 7]: 13 ± 1%; IC50 ([2]; Rattus norvegicus, Neuron, read-out: IC50 for inhibition of [3H]GABA uptake, Neurons): 14 ± 2 µM; IC50 ([4]; Rattus norvegicus, Astrocyte, 3 h, read-out: IC50 for inhibition of [3H]GABA uptake, O-2A/Type 2 astrocytes): 8 ± 0.9 µM |
| NCCS(=O)O [hypotaurine] |  | 25 ± 2 | 742 ± 200 |  | 69 ± 30 | 29 ± 15 | 620 | 692 ± 100 | 536 ± 41 |  |  |  |  |  |  |  |
| NCCS(=O)(=O)O [taurine, 2-aminoethanesulfonic acid] |  |  |  |  |  |  | 13000 | 67000 | 13200 |  |  |  |  |  |  |  |
| NCCC(=O)O [β-alanine] | 86 ± 1 | ~50 | 4060 |  | 100 ± 30 | ~25 | 2030 |  | 1100 | 48 ± 10 |  | 24 ± 8 |  |  |  | IC50 ([2]; Rattus norvegicus, read-out: IC50 for [3H]GABA uptake, neuronal cultures, absence of NNC-711): ~4000 µM; IC50 ([4]; Rattus norvegicus, Astrocyte, read-out: IC50 for GABA transport, O-2A/Type 2 astrocytes): ~2000 µM; IC50 ([5]; Rattus norvegicus, read-out: IC50 for GABA transport, brain aggregates): 3000 µM; IC50 ([5]; Rattus norvegicus, read-out: IC50 for inhibition of [3H]GABA uptake, rat brain aggregates, control, absence of NNC-711): 2930 µM; IC50 ([5]; Rattus norvegicus, read-out: IC50 for inhibition of [3H]GABA uptake, rat brain aggregates, with NNC-711, in the presence of 10 μM NNC-711): 33 µM |
| hydroxynipecotic acid [OH-nipecotic] |  |  |  | 22 ± 2 |  |  |  |  |  | 304 ± 100 | 1610 | 197 ± 20 | 17 ± 3 | 69 ± 10 | 3840 | % Inhibition of [3H]GABA uptake, GAT-2 ([1]; inhibitor 10 μM, 50 nM [3H]GABA, 10 minutes, 37° C.): 9 ± 7 (3) %; IC50 [5, 18]: 10 ± 1 µM |
